Tests used:
Format in all cases: functional, cell-based
HCT-116 = test: Cytotoxicity against human HCT116 cells after 96 hrs by MTT assay; conditions: HCT-116, 96 h
NCI-H460 = test: Cytotoxicity against human NCI-H460 cells after 96 hrs by MTT assay; conditions: NCI-H460, 96 h
BGC-823 = test: Cytotoxicity against human BGC823 cells after 96 hrs by MTT assay; conditions: BGC-823, 96 h
Daoy = test: Cytotoxicity against human DaOY cells after 96 hrs by MTT assay
HepG2 = test: Cytotoxicity against human HepG2 cells after 96 hrs by MTT assay; conditions: HepG2, 96 h

Row | Compound | IC50 (HCT-116) [µM] | IC50 (NCI-H460) [µM] | IC50 (BGC-823) [µM] | IC50 (Daoy) [µM] | IC50 (HepG2) [µM]
1 | CC(=O)O[C@@H]1[C@H](O)C[C@@]2(C)[C@@H](CC[C@@H](C)[C@]23Cc2c(O)cc4c(c2O3)C[C@H]2OCc3cc(O)c5c(c3[C@H](O2)[C@H]4O)O[C@]2(C5)[C@H](C)CC[C@H]3C(C)(C)[C@H](O)CC[C@@]32C)C1(C)C | 18 | 5.5 | 6.6 | 4.2 | 19.3
2 | C[C@@H]1CC[C@H]2C(C)(C)[C@H](O)CC[C@]2(C)[C@@]12Cc1c(O)cc3c(c1O2)[C@@H]1O[C@@H](Cc2c(cc(O)c4c2O[C@]2(C4)[C@H](C)CC[C@H]4C(C)(C)[C@H](O)[C@H](O)C[C@@]42C)[C@@H]1O)OC3 | 6.7 | 7.5 | 14.2 | 2.8 | 11.9
3 | C[C@@H]1CC[C@H]2C(C)(C)[C@H](O)[C@H](O)C[C@]2(C)[C@@]12Cc1c(O)cc3c(c1O2)C[C@H]1OCc2cc(O)c4c(c2[C@H](O1)[C@H]3O)O[C@]1(C4)[C@H](C)CC[C@H]2C(C)(C)[C@H](O)[C@H](O)C[C@@]21C | 19.1 | 12.3 | 19.2 | 14.6 | 19.3
4 | CC(=O)O[C@H]1C(=O)[C@@]2(C)[C@H]([C@H](OC(=O)c3ccccc3)[C@]3(O)C[C@H](OC(=O)[C@H](O)[C@@H](NC(=O)c4ccccc4)c4ccccc4)C(C)=C1C3(C)C)[C@]1(OC(C)=O)CO[C@@H]1C[C@@H]2O [PACLITAXEL] | 0.038 | 0.004 | 0.002 | 0.002 | 0.0102
